# In the supplement of paper PMC10307832:
# Columns and labels:
# Assay in all cases: relative viability (nuclei count vs DMSO), 5 days (fraction); higher = more cells survive
# EPLC-272H = test system: EPLC-272H
# Method in brief: (§1)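 Cells from lung cancer lines were seeded into 1536-well plates and, one day later, dosed by pin tool. Treatments were either a single drug or a fixed dose of an anchor drug with five library-drug doses (not always all listed) in √10 steps. After 5 days, nuclei were stained in a one-step fixation (final 0.05% Triton X-100, 1% formaldehyde, 1 ug/ml Hoechst) and counted on 4× images, and relative viability is the treated-to-vehicle nuclei ratio, as the median of duplicate plates.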
# HCC-78 = test system: HCC-78
# Method in brief: as §1
# CAL-12T = test system: CAL-12T
# Method in brief: as §1
# HCC-15 = test system: HCC-15
# Method in brief: as §1
# NCI-H358 = test system: NCI-H358
# Method in brief: as §1
# ABC-1 = test system: ABC-1
# Method in brief: as §1
# NCI-H2126 = test system: NCI-H2126
# Method in brief: as §1
# LXF-289 = test system: LXF-289
# Method in brief: as §1
# NCI-H441 = test system: NCI-H441
# Method in brief: as §1
# NCI-H1975 = test system: NCI-H1975
# Method in brief: as §1
# COR-L 105 = test system: COR-L 105
# Method in brief: as §1
# NCI-H1915 = test system: NCI-H1915
# Method in brief: as §1
# NCI-H2085 = test system: NCI-H2085
# Method in brief: as §1
# UMC-11 = test system: UMC-11
# Method in brief: as §1
# ChaGo-K-1 = test system: ChaGo-K-1
# Method in brief: as §1
# NCI-H3122 = test system: NCI-H3122
# Method in brief: as §1
# NCI-H322M = test system: NCI-H322M
# Method in brief: as §1
# NCI-H1993 = test system: NCI-H1993
# Method in brief: as §1
# HOP-62 = test system: HOP-62
# Method in brief: as §1
# NCI-H2023 = test system: NCI-H2023
# Method in brief: as §1
# NCI-H1755 = test system: NCI-H1755
# Method in brief: as §1
# EMC-BAC-2 = test system: EMC-BAC-2
# Method in brief: as §1
# NCI-H1666 = test system: NCI-H1666
# Method in brief: as §1
smiles,measurement,setting,value
O=C(O)c1ccc(-c2c[nH]c3ncc(-c4ccccc4)cc23)cc1C1CCCC1 + O=C(CCCCCCC(=O)Nc1ccccc1)NO [Vorinostat] (partner 1 µM),relative viability,EPLC-272H; first compound 0.04 µM,0.503
same,relative viability,EPLC-272H; first compound 0.1265 µM,0.654
same,relative viability,EPLC-272H; first compound 0.4 µM,0.483
same,relative viability,EPLC-272H; first compound 1.265 µM,0.261
same,relative viability,HCC-78; first compound 0.1265 µM,0.451
same,relative viability,HCC-78; first compound 0.4 µM,0.441
same,relative viability,HCC-78; first compound 1.265 µM,0.448
same,relative viability,CAL-12T; first compound 0.04 µM,0.721
same,relative viability,CAL-12T; first compound 0.1265 µM,0.91
same,relative viability,CAL-12T; first compound 0.4 µM,0.73
same,relative viability,CAL-12T; first compound 1.265 µM,0.668
same,relative viability,HCC-15; first compound 0.04 µM,0.848
same,relative viability,HCC-15; first compound 0.1265 µM,0.872
same,relative viability,HCC-15; first compound 0.4 µM,0.834
same,relative viability,HCC-15; first compound 1.265 µM,0.59
same,relative viability,NCI-H358; first compound 0.04 µM,0.574
same,relative viability,NCI-H358; first compound 0.1265 µM,0.795
same,relative viability,NCI-H358; first compound 0.4 µM,0.536
same,relative viability,NCI-H358; first compound 1.265 µM,0.229
same,relative viability,ABC-1; first compound 0.04 µM,1.12
same,relative viability,ABC-1; first compound 0.1265 µM,1.36
same,relative viability,ABC-1; first compound 0.4 µM,1.31
same,relative viability,ABC-1; first compound 1.265 µM,0.985
same,relative viability,NCI-H2126; first compound 0.04 µM,0.823
same,relative viability,NCI-H2126; first compound 0.1265 µM,0.755
same,relative viability,NCI-H2126; first compound 0.4 µM,0.786
same,relative viability,NCI-H2126; first compound 1.265 µM,0.616
same,relative viability,LXF-289; first compound 0.04 µM,0.769
same,relative viability,LXF-289; first compound 0.1265 µM,0.773
same,relative viability,LXF-289; first compound 0.4 µM,0.632
same,relative viability,LXF-289; first compound 1.265 µM,0.398
same,relative viability,NCI-H441; first compound 0.04 µM,0.866
same,relative viability,NCI-H441; first compound 0.1265 µM,0.837
same,relative viability,NCI-H441; first compound 0.4 µM,0.615
same,relative viability,NCI-H441; first compound 1.265 µM,0.445
same,relative viability,NCI-H1975; first compound 0.04 µM,0.684
same,relative viability,NCI-H1975; first compound 0.1265 µM,0.763
same,relative viability,NCI-H1975; first compound 0.4 µM,0.736
same,relative viability,NCI-H1975; first compound 1.265 µM,0.441
same,relative viability,COR-L 105; first compound 0.04 µM,0.912
same,relative viability,COR-L 105; first compound 0.1265 µM,0.942
same,relative viability,COR-L 105; first compound 0.4 µM,0.773
same,relative viability,COR-L 105; first compound 1.265 µM,0.921
same,relative viability,NCI-H1915; first compound 0.04 µM,0.532
same,relative viability,NCI-H1915; first compound 0.1265 µM,0.525
same,relative viability,NCI-H1915; first compound 0.4 µM,0.501
same,relative viability,NCI-H1915; first compound 1.265 µM,0.479
same,relative viability,NCI-H2085; first compound 0.04 µM,0.793
same,relative viability,NCI-H2085; first compound 0.1265 µM,0.857
same,relative viability,NCI-H2085; first compound 0.4 µM,0.779
same,relative viability,NCI-H2085; first compound 1.265 µM,0.642
same,relative viability,UMC-11; first compound 0.04 µM,0.419
same,relative viability,UMC-11; first compound 0.1265 µM,0.321
same,relative viability,UMC-11; first compound 0.4 µM,0.347
same,relative viability,UMC-11; first compound 1.265 µM,0.219
same,relative viability,ChaGo-K-1; first compound 0.04 µM,0.739
same,relative viability,ChaGo-K-1; first compound 0.1265 µM,0.786
same,relative viability,ChaGo-K-1; first compound 0.4 µM,0.772
same,relative viability,ChaGo-K-1; first compound 1.265 µM,0.686
same,relative viability,NCI-H3122; first compound 0.04 µM,1.1
same,relative viability,NCI-H3122; first compound 0.1265 µM,1.07
same,relative viability,NCI-H3122; first compound 0.4 µM,1.12
same,relative viability,NCI-H3122; first compound 1.265 µM,0.855
same,relative viability,NCI-H322M; first compound 0.04 µM,0.909
same,relative viability,NCI-H322M; first compound 0.1265 µM,0.858
same,relative viability,NCI-H322M; first compound 0.4 µM,0.898
same,relative viability,NCI-H322M; first compound 1.265 µM,0.855
same,relative viability,NCI-H1993; first compound 0.04 µM,0.908
same,relative viability,NCI-H1993; first compound 0.1265 µM,1.07
same,relative viability,NCI-H1993; first compound 0.4 µM,0.725
same,relative viability,NCI-H1993; first compound 1.265 µM,0.311
same,relative viability,HOP-62; first compound 0.04 µM,0.694
same,relative viability,HOP-62; first compound 0.1265 µM,0.606
same,relative viability,HOP-62; first compound 0.4 µM,0.594
same,relative viability,HOP-62; first compound 1.265 µM,0.48
same,relative viability,NCI-H2023; first compound 0.04 µM,0.825
same,relative viability,NCI-H2023; first compound 0.1265 µM,0.967
same,relative viability,NCI-H2023; first compound 0.4 µM,0.523
same,relative viability,NCI-H2023; first compound 1.265 µM,0.507
same,relative viability,NCI-H1755; first compound 0.04 µM,0.762
same,relative viability,NCI-H1755; first compound 0.1265 µM,0.806
same,relative viability,NCI-H1755; first compound 0.4 µM,0.797
same,relative viability,NCI-H1755; first compound 1.265 µM,0.745
same,relative viability,EMC-BAC-2; first compound 0.04 µM,0.421
same,relative viability,EMC-BAC-2; first compound 0.1265 µM,0.575
same,relative viability,EMC-BAC-2; first compound 0.4 µM,0.449
same,relative viability,EMC-BAC-2; first compound 1.265 µM,0.391
same,relative viability,NCI-H1666; first compound 0.04 µM,1.04
same,relative viability,NCI-H1666; first compound 0.1265 µM,1.02
same,relative viability,NCI-H1666; first compound 0.4 µM,1.08
same,relative viability,NCI-H1666; first compound 1.265 µM,0.737
